Legend:
[1] = Hepatic microsome stability assay, human; format: in vitro ADME
Method: (§1) Hepatic Microsome Assay. Hepatic microsomes stability assays were performed in accordance with known methods (Peddibhotla, et al. (2013) ACS Med. Chem. Lett. 4:846-851). Briefly, 3 μL of 25 μM compound solution in acetonitrile were incubated with 123 μL of mouse, human or rat liver microsomes (Xenotech, Kansas City, KS). After preincubation at 37° C. for 10 minutes, enzyme reactions were initiated by adding 120 !at of NADPH-generating system (2 mM NADP+, 10 mM glucose-6-phosphate, 0.4 U/ml glucose-6-phosphate dehydrogenase, and 5 mM MgCl2) in the presence of 100 mM potassium phosphate buffer (pH 7.4). […] The microsomal concentrations used were 1.0 mg/mL. Compounds were incubated in microsomes for 0, 5, 15, 30 and 60 minutes. The reactions were stopped by the addition of ice cold ACN and the reaction mixtures were centrifuged at 10,000 g for 10 minutes before the supernatant was removed for analysis. A 10 μL portion of the resulting extract was injected on a Thermo HPLC system equipped with PAL CTC plate sampler (96-well plate), Dionex Ultimate 3000 binary pump (flow rate at 0. 600 mL/min), Dionex Ultimate 3000 thermostatted column compartment (temperature at 40° C.), Thermo Endura Mass Spectrometer (ESI source), using a Thermo Scientific Accucore C18 (2.6 μM, 2.1×50 mm) column. A gradient was run starting at 95% H2O (0.1% formic acid) and 5% ACN (0. 1% formic acid) during the first 0. 5 min, then under gradient condition of 5-100% ACN (0.1% formic acid) from minute 0. 5 to 3.5, finishing at 95% H2O (0.1% formic acid) and 5% ACN (0.1% formic acid) over 0.5 min, with another 1 min at 95:5 to re-equilibrate.

[2] = Hepatic microsome stability assay, mouse; format: in vitro ADME; conditions: for % Remaining: mouse microsomes
Method: as §1

E47MER = experiment: Counter-screen for estrogenic activity (E47MER luciferase reporter in HeLa cells); format: cell-based, human; conditions: with 1 μM or without tamoxifen, FIG. 5
Method: Counter-Screen for Estrogenic Activity. Estrogenic activity was monitored by co-transfection of a reporter plasmid containing a multimerized E-box 5′ of a minimal promoter fused to the Firefly luciferase gene with wild-type E47 or E47MER (Kiselyuk, et al. (2010) J. Biomol. Screen 15(6):663-70). HeLa cells were transfected using polyethylenimine, 0.2 μg 4RTK-Luc plasmid and either 0.3 μg of human E47, E47MER or pMSCVhph vector in 50 μl of serum-free Dulbecco's modification of Eagle medium per well. Transfections included Renilla luciferase (pRL-TK) plasmid as a control for transfection efficacy. Transfection conditions were as described in the PPRE-Luc reporter assay of Kiselyuk, et al. ((2010) J. Biomol. Screen 15(6):663-70). Sixteen hours after transfection, culture media were changed and maintained for 48 hours with tamoxifen and/or compound or vehicle (DMSO). Cells were then lysed and assayed for luciferase activity using the Promega DUAL-LUCIFERASE® reporter assay kit (Promega Corp., Madison, WI), and luminescence was measured using the Veritas™ Microplate Luminometer (Turner Biosystems, Sunnyvale, CA). Data were normalized to Renilla luciferase (pRL-TK) and expressed as fold-change over vehicle alone.

HepG2 cells = experiment: Lipid clearance (steatosis assay) in HepG2 cells; format: cell-based; conditions: HepG2 liver cells, 20 μM
Method: Lipid Clearance in HepG2 and T6PNE Cells (Steatosis Assay). The steatosis assay was carried out as described (Kiselyuk, et al. (2012) Chem. Biol. 19(7):806-818) with the exception of the drug concentration, which was 20 μM for N-trans-caffeoyltyramine with 0.25 mM palmitate in HepG2 cell lines, and 10 μM of either N-trans-caffeoyltyramine, N-trans-caffeoyltyramine, or p-coumaroyltyramine, with 0.25 mM palmitate in T6PNE cell lines. Steatosis was assessed using the Oil Red O Method for Fats kits (Poly Scientific; Warrington, PA), per manufacturer's guidelines. Briefly, frozen tissue slides or fixed cells were incubated in neat propylene glycol for 2 minutes and Oil Red O solution for […] for slides or 1 hour for fixed cells, differentiated in 85% propylene glycol solution for 1 minute, washed twice with distilled water and stained in Hematoxylin of 10 seconds. Slides were mounted with glycerin jelly mounting medium.

insulin mRNA = experiment: Insulin mRNA levels by quantitative PCR; format: cell-based; conditions: FIG. 2
Method: Expression of Insulin and HNF4α. RNA was purified using a RNEASY® chromatographic separation and isolation kits (Qiagen), and converted to cDNA using the gScript™ cDNA SuperMix (Quanta Biosciences). Q-PCR was conducted with cDNA corresponding to 2 μg of RNA using an Opticon Real-Time System (MJ Research) and QPCR SuperMix (BioPioneer). See All mRNA values were normalized to 18S rRNA values and are expressed as fold changes over vehicle-treated control.

## O=C(/C=C/c1ccc(O)c(O)c1)NCCc1ccc(O)cc1 [N-trans-caffeoyltyramine]
[1]; human microsomes
  apparent major biotransformation pathway: oxidation of the left-hand aryl ring
[1]; human microsomes, 1 μM
  % Remaining: 55.3%
[1]; human microsomes, 10 μM
  % Remaining: 85.4%
[1]; human, rat and mouse hepatic microsomes
  stability in hepatic microsomes: stable
[1]; liver microsomes, pH 7.4, human microsomes, 1 μM
  half-life at 1 μM: 77.3 min
[1]; liver microsomes, pH 7.4, human microsomes, 1 μM, read-out: Clearance Rate
  microsomal CLint at 1 μM: 17.9 µL/min/mg
[1]; liver microsomes, pH 7.4, human microsomes, 10 μM
  half-life at 10 μM: 262 min
[1]; liver microsomes, pH 7.4, human microsomes, 10 μM, read-out: Clearance Rate
  microsomal CLint at 10 μM: 5.3 µL/min/mg
[2]; liver microsomes, pH 7.4, 1 μM
  half-life at 1 μM: 0.8 min
[2]; liver microsomes, pH 7.4, 1 μM, read-out: Clearance Rate
  microsomal CLint at 1 μM: 1760 µL/min/mg
[2]; liver microsomes, pH 7.4, 10 μM
  half-life at 10 μM: 6.9 min
[2]; liver microsomes, pH 7.4, 10 μM, read-out: Clearance Rate
  microsomal CLint at 10 μM: 200 µL/min/mg
[2]; 1 μM
  % Remaining: 0.4%
[2]; 10 μM
  % Remaining: 0.3%
E47MER
  estrogenic activity: did not exhibit estrogenic activity
HepG2 cells
  clearing of fats, Oil Red O staining: capable of clearing harmful fats from the liver
HepG2 cells; 0.25 mM palmitate
  accumulation of fats: inhibited accumulation of fats
Insulin mRNA
  insulin gene expression: upregulated

— patent US20240158339A1, “TYRAMINE CONTAINING HYDROXYCINNAMIC ACID AMIDE DERIVATIVES AND METHODS OF USE THEREOF” (Brightseed, Inc., priority 2018, published 2024)
